What was measured:
Experiment in all cases: relative viability (nuclei count vs DMSO), 5 days (fraction); higher = more cells survive
MK-8033 + Crizotinib = compound: Cn1cc(-c2cnc3ccc4ccc(CS(=O)(=O)NCc5ccccn5)cc4c(=O)c3c2)cn1 [MK-8033] + C[C@@H](Oc1cc(-c2cnn(C3CCNCC3)c2)cnc1N)c1c(Cl)ccc(F)c1Cl [Crizotinib] (partner 1 µM)
Procedure, shortened: (§1)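 Relative viability is defined as nuclei in treated wells over nuclei in vehicle wells. Duplicate plates were run and medians reported. Lung cancer cell lines in 1536-well plates were dosed by pin tool one day after seeding, with one drug or with a fixed anchor-drug dose plus five library-drug doses (not always all listed) in √10 steps, and nuclei were counted after 5 days.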

MK-8033 + Palbociclib = compound: Cn1cc(-c2cnc3ccc4ccc(CS(=O)(=O)NCc5ccccn5)cc4c(=O)c3c2)cn1 [MK-8033] + CC(=O)c1c(C)c2cnc(Nc3ccc(N4CCNCC4)cn3)nc2n(C2CCCC2)c1=O [Palbociclib] (partner 0.5 µM)
Procedure, shortened: as §1

RU-SKI 43 + Lapatinib = compound: CC[C@@H](C)CNCC(=O)N1CCC2=C([C@@H]1COC3=CC=CC(=C3)C)C=CS2 [RU-SKI 43] + CS(=O)(=O)CCNCc1ccc(-c2ccc3ncnc(Nc4ccc(OCc5cccc(F)c5)c(Cl)c4)c3c2)o1 [Lapatinib] (partner 2 µM)
Procedure, shortened: as §1

MK-8033 + Trametinib = compound: Cn1cc(-c2cnc3ccc4ccc(CS(=O)(=O)NCc5ccccn5)cc4c(=O)c3c2)cn1 [MK-8033] + CC(=O)Nc1cccc(-n2c(=O)n(C3CC3)c(=O)c3c(Nc4ccc(I)cc4F)n(C)c(=O)c(C)c32)c1 [Trametinib] (partner 0.02 µM)
Procedure, shortened: as §1

| Cell Line | relative viability (MK-8033 + Crizotinib; first compound 0.02 µM) | relative viability (MK-8033 + Crizotinib; first compound 0.06325 µM) | relative viability (MK-8033 + Crizotinib; first compound 0.2 µM) | relative viability (MK-8033 + Crizotinib; first compound 0.6325 µM) | relative viability (MK-8033 + Crizotinib; first compound 2 µM) | relative viability (MK-8033 + Palbociclib; first compound 0.02 µM) | relative viability (MK-8033 + Palbociclib; first compound 0.06325 µM) | relative viability (MK-8033 + Palbociclib; first compound 0.2 µM) | relative viability (MK-8033 + Palbociclib; first compound 0.6325 µM) | relative viability (MK-8033 + Palbociclib; first compound 2 µM) | relative viability (RU-SKI 43 + Lapatinib; first compound 0.1 µM) | relative viability (RU-SKI 43 + Lapatinib; first compound 0.3162 µM) | relative viability (RU-SKI 43 + Lapatinib; first compound 1 µM) | relative viability (RU-SKI 43 + Lapatinib; first compound 3.162 µM) | relative viability (RU-SKI 43 + Lapatinib; first compound 10 µM) | relative viability (MK-8033 + Trametinib; first compound 0.02 µM) | relative viability (MK-8033 + Trametinib; first compound 0.06325 µM) | relative viability (MK-8033 + Trametinib; first compound 0.2 µM) | relative viability (MK-8033 + Trametinib; first compound 0.6325 µM) | relative viability (MK-8033 + Trametinib; first compound 2 µM) |
| --- | --- | --- | --- | --- | --- | --- | --- | --- | --- | --- | --- | --- | --- | --- | --- | --- | --- | --- | --- | --- |
| NCI-H1437 | 1.04 | 0.723 | 0.545 | 0.877 | 0.918 | 0.275 | 0.317 | 0.323 | 0.303 | 0.3 | 0.904 | 1.08 | 0.907 | 1.06 | 0.746 | 0.483 | 0.583 | 0.46 | 0.607 | 0.449 |
| COR-L23 | 0.58 | 0.721 | 0.489 | 0.73 | 0.506 | 0.239 | 0.29 | 0.27 | 0.304 | 0.326 | 0.982 | 0.845 | 1.3 | 1.04 | 0.996 | 0.607 | 0.576 | 0.602 | 0.572 | 0.523 |
| NCI-H1651 | 0.852 | 0.832 | 0.846 | 0.938 | 0.862 | 0.51 | 0.498 | 0.514 | 0.536 | 0.521 | 0.846 | 0.964 | 0.98 | 0.974 | 0.764 | 0.823 | 0.846 | 0.845 | 0.809 | 0.861 |
| NCI-H2087 | 0.957 | 0.746 | 0.883 | 0.989 | 0.836 | 0.193 | 0.21 | 0.248 | 0.26 | 0.235 | 0.916 | 1.12 | 0.947 | 1.09 | 0.804 | 0.213 | 0.147 | 0.187 | 0.214 | 0.254 |
| NCI-H661 | 0.991 |  | 1.02 | 0.948 | 0.903 | 0.389 | 0.369 | 0.403 | 0.397 | 0.413 | 0.465 | 0.525 | 0.511 | 0.434 | 0.421 | 0.544 | 0.498 | 0.577 | 0.57 | 0.515 |
| LXF-289 | 0.738 | 0.77 | 0.777 | 0.819 | 0.773 | 0.612 | 0.579 | 0.61 | 0.597 | 0.596 | 0.906 | 0.88 | 0.979 | 0.989 | 0.878 | 0.702 | 0.616 | 0.685 | 0.711 | 0.659 |
| LC-2-ad | 0.423 | 0.347 | 0.393 | 0.447 | 0.445 | 0.493 | 0.453 | 0.491 | 0.499 | 0.488 | 1.05 | 0.969 | 1 | 0.976 | 0.93 | 0.895 | 0.888 | 0.885 | 0.916 | 0.898 |
| NCI-H2085 | 0.873 | 0.804 | 0.867 | 0.801 | 0.977 | 0.468 | 0.479 | 0.499 | 0.484 | 0.474 | 0.672 | 0.719 | 0.836 | 0.674 | 0.686 | 0.542 | 0.546 | 0.525 | 0.554 | 0.574 |

From the supplement of paper PMC10307832
